Results on one compound are retold here after patent US8557800B2, “Sphingosine kinase inhibitors” (Apogee Biotechnology Corporation, priority 2005, dated 2013).

The subject of test [1] is mice, multiple cycles of DSS-induced inflammation. Briefly: Chronic DSS-colitis model (35-day). It is filed as in vivo, mouse. As for the experimental part:
FIG. 13. Effects of Compound 62 on the DAI in the chronic DSS-colitis model. Mice received 2 cycles (7 days per cycle) of DSS (1.5% cycle 1 and 1% cycle 2), 2 cycles of normal drinking water and were randomized by DAI on Day 28 into groups of 8 mice. The mice were then treated as follows: No DSS (▪)—normal drinking water and orally dosed with PEG400 every day for 7 days (water control); DSS alone (▴)—drinking water containing 1.5% DSS and orally dosed with PEG daily for 7 days; DSS+Compound 62 (▾)—drinking water containing 1.5% DSS and orally dosed with Compound 62 (50 mg/kg) every day for 7 days; DSS+Dipentum (♦)—drinking water containing 1.5% DSS and orally dosed with Dipentum (50 mg/kg). *p<0.001 versus No DSS group.
A 35-day model of IBD was used to evaluate the effectiveness of the SK inhibitors in mice that experience multiple cycles of DSS-induced inflammation. This chronic model is similar to the acute model, except that the DSS concentration in the drinking water is lower and animals receive periodic exposure to DSS (DSS on days 1-7, water on Days 8-13, DSS on day 14-21, water on Days 22-27 and then DSS until the completion of the study on Day 35). In these experiments, treatment of the mice with an SK inhibitor or Dipentum began on Day 28 and continued daily until the completion of the study. The DAI index was monitored every other day until Day 28 and then daily until Day 35. Animals were sacrificed on Day 35, and changes in the colon length and cytokine profiles were measured.

Another test relates to Caco-2 (colon). Briefly: Human tumor cell line panel, sulforhodamine B. Conditions: 48 hours, mean ± sd. It is filed as cell-based.
Test [2] deals with male Lewis rats, adjuvant-induced arthritis. Briefly: Adjuvant-induced arthritis model. The format is in vivo, rat. The method, then: Adjuvant-induced arthritis is another widely used assay that recapitulates many features of human rheumatoid arthritis, and so is useful in the evaluation of new drug candidates. Age- and weight-matched male Lewis rats (150-170 g) were injected subcutaneously in the tail with 1 mg of Mycobacterium butyricum (Difco, killed dried) suspended in 0.1 ml of light mineral oil. Symptoms of immune reactivity were present after 2 weeks. Responsive rats were randomized into treatment groups, and received oral daily doses (1 ml) of: solvent alone (0.375% Tween-80); 100 mg/kg Compound 62; 35 mg/kg Compound 62; or 5 mg/kg Compound 62, or intraperitoneal injections of indomethacin (5 mg/kg) every other day as a positive control. The severity of disease in each animal was quantified by measurement of the hind paw thickness.

The subject of a further test is NFκB. Briefly: TNFα-induced NFκB reporter cell line. It is filed as cell-based. The settings on record: fibroblasts, TNFα 6 hours. The method, then:
FIG. 5. Inhibition of TNFα-induced activation of NFκB by Compound 62. Fibroblasts transfected with a TNFα-responsive promoter linked to luciferase were treated with the indicated concentrations of Compound 62 and then treated with TNFα for 6 hours. The amount of luciferase expressed by the cells was then measured by luminescence. Values represent the mean±sd luciferase activity in triplicate samples in a typical experiment.
The excellent aqueous solubility of Compound 62 allowed it to be evaluated in an NFκB reporter cell line (FIG. 5). Fibroblasts transfected with an NFκB response element linked to luciferase produce high levels of luciferase upon exposure to TNFα.

A further test relates to SK-OV-3 (ovary). The experiment in a line: Human tumor cell line panel, sulforhodamine B. It is filed as cell-based. Conditions: 48 hours, mean ± sd.
Test [3] concerns VEGF-induced vascular leakage. Briefly: VEGF-induced vascular permeability (Miles assay). The format is in vivo, mouse. The settings on record: 75 mg/kg intraperitoneal or 100 mg/kg oral gavage, nude mice. The method, then:
The effects of VEGF on vascular leakage in vivo were measured as described by Miles and Miles (Miles et al., 1952, J Physiol 118: 228). Groups of female athymic nude mice (approximately 20 g) were given intraperitoneal injections of DMSO alone or Compound 62 (75 mg/kg) in a volume of 50 microliters. In some experiments, Compound 62 was administered by oral gavage at a dose of 100 mg/kg. After 30 minutes, 100 μL of 0.5% Evan's blue dye in PBS was administered by tail vein injection. Thirty minutes later, mice received the first of 3 sequential (every 30 minutes) intradermal injections of VEGF (400 ng in 20 μL of PBS per injection) on the left hind flank. As a control, similar injections of PBS were administered on the right hind flank. Thirty minutes after the last injection, leakage of the dye from the vasculature into the skin was assessed by measuring the length and width of the spots of blue-colored skin using calipers.

The next test has as its system recombinant human SK. The experiment in a line: Inhibition of recombinant human SK, LC/MS/MS assay. It is filed as biochemical. The settings on record: 6 μg/ml compound. The method, boiled down:
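Enzyme incubated with unlabeled sphingosine and ATP (1 mM, as in the radiometric format) for 30 min, then stopped and extracted with acetonitrile. S1P quantified by C8 reverse-phase HPLC–MS/MS against C17 sphingosine and C17 S1P internal standards using calibration curves.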

Another test concerns Hep-G2 (liver). Briefly: Human tumor cell line panel, sulforhodamine B. It is filed as cell-based. Conditions: HepG2, 48 hours, mean ± sd.
For another test, the system named is 1025LU (melanoma). The experiment in a line: Human tumor cell line panel, sulforhodamine B. The settings on record: 48 hours, mean ± sd. It is filed as cell-based.
The next test relates to Panc-1 (pancreas). The experiment in a line: Human tumor cell line panel, sulforhodamine B. It is filed as cell-based. The settings on record: 48 hours, mean ± sd.
The test system of a further test is MDA-MB-231 (breast, ER−). The experiment in a line: Human tumor cell line panel, sulforhodamine B. The format is cell-based. Conditions: 48 hours, mean ± sd.

For `O=C(NCc1ccncc1)C12CC3CC(C1)CC(c1ccc(Cl)cc1)(C3)C2` [Compound 62, 3-(4-Chloro-phenyl)-adamantane-1-carboxylic acid (pyridin-4-ylmethyl)-amide], the colon length in test [1] (50 mg/kg oral daily Day 28-35, DSS alone 4.9±0.2, water 7.8±0.3) is recorded as 6.2±0.2 cm. The “increase in DAI” value in [1] (50 mg/kg oral daily from Day 28 to Day 35, third DSS exposure) is “significantly suppressed”. The “colon SK expression (immunohistochemistry)” value in test [1] (DSS mice, 50 mg/kg oral daily) is given as “clearly reduced”. Moreover, the “serum level of IL-6” value in test [1] (at sacrifice, Day 35) is “reduced”. Moreover, the “colon S1P levels” value in test [1] (oral 50 mg/kg daily, 7 days prior to sacrifice) is “significant reductions”. Further, the “colon levels of pro-inflammatory cytokines TNFα, IL-1β, IFN-γ and IL-6” value in [1] (treated during the final DSS cycle) is listed as “reduced levels”. In addition, the half-inhibitory concentration (IC50) in the test with Caco-2 (colon) was found to be 11.8 ± 5.6 µM; with SK-OV-3 (ovary) it was 10.5 ± 2.6 µM; in the test with Hep-G2 (liver), 6 ± 2.6 µM; in the test with 1025LU (melanoma) it was 33.7 ± 2.7 µM; in the test on Panc-1 (pancreas) it was 32.8 ± 0.1 µM; in the test with MDA-MB-231 (breast, ER−) it was 29.1 ± 11.1 µM. Also, the “reduction in the arthritic response (hind paw thickness)” value was 13% in test [2] (5 mg/kg oral daily), 42% in test [2] (35 mg/kg oral daily) and 76% in [2] (100 mg/kg oral daily). Further, in the test with NFκB, the “activation of NFκB by TNFα (luciferase)” value is listed as “dose-dependently suppressed”. Besides, the “vascular leakage in response to VEGF” value in test [3] is “markedly reduced”. For the same compound, in the test on recombinant human SK, the “Recombinant SK (% inhibition)” value was 13%.

One may read the IC50 as the midpoint of a concentration-inhibition curve. Low values mean inhibition by little substance, high ones a need for much substance.
